Experimental data from US20040180908A1, “Adenosine derivative in polymorph ii form” (priority 2001, published 2004).

Assay: stability of the polymorph at elevated temperatures
Type: physicochemical
Settings: for example in excess of 70° C.

## CC(C)(C)c1nnc([C@H]2O[C@@H](n3cnc4c(Nc5ccc(Cl)cc5F)ncnc43)[C@H](O)[C@@H]2O)o1 [Polymorph II, (2S,3S,4R,5R)-2-(5-tert-butyl-[1,3,4]-oxadiazol-2-yl)-5-[6-(4-chloro-2-fluorophenylamino)-9H-purin-9-yl]-tetrahydrofuran-3,4-diol]
  stability at elevated temperatures: particular stability at elevated temperatures
